# Laboratory results reported in patent US20140128399A1, “METHODS AND COMPOSITIONS FOR TREATING URINARY TRACT INFECTIONS USING AGENTS THAT MIMIC OR ELEVATE CYCLIC AMP” (DUKE UNIVERSITY, priority 2007, published 2014).
# System: E. coli-infected human bladder epithelial cells (BECs)
# Experiment: Intracellular bacterial levels in BECs
# Format: cell-based
# Conditions: single agent, presented as % of control in figures
# Procedure: Intracellular bacterial levels in BECs were measured in untreated BECs and in BECs treated with forskolin, various PDE inhibitors, and a combination of forskolin with a PDE inhibitor. Several PDE inhibitors were used, including both broadly active PDE inhibitors that block PDEs in a non-specific manner as well as specific PDE inhibitors that block only certain PDEs.
smiles,measurement,value
"CCCCCCCCCCCCCC(=O)O[C@@H]1[C@@H](C)[C@@]2(O)[C@@H](C=C(CO)C[C@]3(O)C(=O)C(C)=C[C@@H]23)[C@@H]2C(C)(C)[C@]12OC(C)=O [PMA, phorbol myristate acetate]",bacterial loads / intracellular bacterial numbers in BECs,significantly reduced
